The source made the active and inactive calls. The rule behind the calls is not given here.
Tests used:
HCT-116 [1] = assay: Induction of apoptosis in human HCT116 cells assessed as late apoptotic cells at 8 uM incubated for 24 hrs in presence of pan-caspase inhibitor z-VAD-FMK by annexin-V-FITC/PI staining based FACS analysis (reference value: 6.04%); format: functional
HCT-116 [2] = assay: Induction of apoptosis in human HCT116 cells assessed as viable cells at 8 uM incubated for 24 hrs in presence of pan-caspase inhibitor z-VAD-FMK by annexin-V-FITC/PI staining based FACS analysis (reference value: 85.28%); format: functional; settings: HCT-116, 24 h, read-out: Activity
HCT-116 [3] = assay: Induction of apoptosis in human HCT116 cells assessed as necrotic cells at 4 uM incubated for 24 hrs in presence of pan-caspase inhibitor z-VAD-FMK by annexin-V-FITC/PI staining based FACS analysis (reference value: 0.6%); format: functional
HCT-116 [4] = assay: Induction of apoptosis in human HCT116 cells assessed as early apoptotic cells at 4 uM incubated for 24 hrs in presence of pan-caspase inhibitor z-VAD-FMK by annexin-V-FITC/PI staining based FACS analysis (reference value: 8.08%); format: functional
HCT-116 [5] = assay: Induction of apoptosis in human HCT116 cells assessed as viable cells at 4 uM incubated for 24 hrs in presence of pan-caspase inhibitor z-VAD-FMK by annexin-V-FITC/PI staining based FACS analysis (reference value: 85.28%); format: functional; settings: HCT-116, 24 h, read-out: Activity
HCT-116 [6] = assay: Induction of apoptosis in human HCT116 cells assessed as necrotic cells at 8 uM incubated for 24 hrs by annexin-V-FITC/PI staining based FACS analysis (reference value: 0.71 to 2.26%); format: functional
HCT-116 [7] = assay: Induction of apoptosis in human HCT116 cells assessed as late apoptotic cells at 8 uM incubated for 24 hrs by annexin-V-FITC/PI staining based FACS analysis (reference value: 1.55 to 1.56%); format: functional
HCT-116 [8] = assay: Induction of apoptosis in human HCT116 cells assessed as early apoptotic cells at 8 uM incubated for 24 hrs by annexin-V-FITC/PI staining based FACS analysis (reference value: 1.77 to 3.38%); format: functional
HCT-116 [9] = assay: Induction of apoptosis in human HCT116 cells assessed as viable cells at 8 uM incubated for 24 hrs by annexin-V-FITC/PI staining based FACS analysis (reference value: 94.35 to 94.43%); format: functional; settings: HCT-116, 24 h, read-out: Activity
HCT-116 [10] = assay: Induction of apoptosis in human HCT116 cells assessed as increase in cleaved PARP protein expression level at 4 to 8 uM incubated for 24 hrs in presence of pan-caspase inhibitor z-VAD-FMK by Western blot analysis; format: functional, cell-based
HCT-116 [11] = assay: Antiproliferative activity against human HCT116 cells incubated for 48 hrs by MTT assay; format: functional, cell-based; settings: HCT-116, 48 h
HeLa = assay: Antiproliferative activity against human HeLa cells incubated for 48 hrs by MTT assay; format: functional, cell-based
BGC-823 = assay: Antiproliferative activity against human BGC823 cells incubated for 48 hrs by MTT assay; format: functional, cell-based; settings: BGC-823, 48 h
RKO [12] = assay: Growth inhibition of human RKO cells incubated for 24 hrs by CCK-8 assay; format: functional, cell-based
HCT-116 [13] = assay: Inhibition of colony formation in human HCT116 cells incubated for 24 hrs followed by compound washout and subsequent incubation for 10 to 14 days by crystal violet staining based assay; format: functional, cell-based
NCI-H1650 = assay: Antiproliferative activity against human NCI-H1650 cells incubated for 48 hrs by MTT assay; format: functional, cell-based; settings: NCI-H1650, 48 h
HCT-116 [14] = assay: Growth inhibition of human HCT116 cells incubated for 24 hrs by CCK-8 assay; format: functional, cell-based
RKO [15] = assay: Inhibition of colony formation in human RKO cells incubated for 24 hrs followed by compound washout and subsequent incubation for 10 to 14 days by crystal violet staining based assay; format: functional, cell-based
HCT-116 [16] = assay: Induction of morphological changes in human HCT116 cells assessed as reduction in cell number at 4 to 10 uM incubated for 24 hrs by phase-contrast microscopic method; format: functional, cell-based
HCT-116 [17] = assay: Induction of apoptosis in human HCT116 cells assessed as early apoptotic cells at 4 uM incubated for 24 hrs by annexin-V-FITC/PI staining based FACS analysis (reference value: 1.77 to 3.38%); format: functional
HCT-116 [18] = assay: Induction of apoptosis in human HCT116 cells assessed as late apoptotic cells at 4 uM incubated for 24 hrs by annexin-V-FITC/PI staining based FACS analysis (reference value: 1.55 to 1.56%); format: functional
HCT-116 [19] = assay: Induction of apoptosis in human HCT116 cells assessed as necrotic cells at 8 uM incubated for 24 hrs in presence of pan-caspase inhibitor z-VAD-FMK by annexin-V-FITC/PI staining based FACS analysis (reference value: 0.6%); format: functional
HCT-116 [20] = assay: Induction of apoptosis in human HCT116 cells assessed as early apoptotic cells incubated for 24 hrs by annexin-V-FITC/PI staining based FACS analysis; format: functional, cell-based
HCT-116 [21] = assay: Induction of apoptosis in human HCT116 cells assessed as late apoptotic cells incubated for 24 hrs by annexin-V-FITC/PI staining based FACS analysis; format: functional, cell-based
HCT-116 [22] = assay: Induction of apoptosis in human HCT116 cells assessed as increase in cleaved PARP protein expression level at 4 to 8 uM incubated for 24 hrs by Western blot analysis; format: functional, cell-based
HCT-116 [23] = assay: Induction of apoptosis in human HCT116 cells deficient in p53 assessed as increase in pro-caspase3 protein expression level at 4 to 8 uM incubated for 24 hrs by Western blot analysis; format: functional, cell-based
HCT-116 [24] = assay: Induction of autophagy in human HCT116 cells assessed as increase in LC3B-2 protein expression level incubated for 24 hrs by Western blot analysis; format: functional, cell-based
HCT-116 [25] = assay: Antiproliferative activity against human HCT116 cells expressing ATG5(-/-) assessed as cell viability incubated for 24 hrs by CCK8 assay; format: functional, cell-based
HCT-116 [26] = assay: Antiproliferative activity against human HCT116 expressing p53 (-/-) at 1 to 16 uM assessed as decrease cell viability incubated for 24 hrs by CCK-8 assay; format: functional, cell-based
HCT-116 [27] = assay: Induction of apoptosis in human HCT116 cells deficient in ATG7 assessed as early apoptotic cells at 8 uM incubated for 24 hrs by annexin-V-FITC/PI staining based FACS analysis (reference value: 2.32%); format: functional
HCT-116 [28] = assay: Induction of apoptosis in human HCT116 cells deficient in ATG7 assessed as late apoptotic cells at 8 uM incubated for 24 hrs by annexin-V-FITC/PI staining based FACS analysis (Rvb =6.56%); format: functional
HCT-116 [29] = assay: Induction of apoptosis in human HCT116 cells deficient in ATG7 assessed as necrotic cells at 8 uM incubated for 24 hrs by annexin-V-FITC/PI staining based FACS analysis (reference value: 5.58%); format: functional
[30] = Antitumour activity against mouse […] cells implanted in BALB/c mouse assessed inhibition in tumour growth at 80 mg/kg administered once every three days for 21 days post tumour implantation relative to control; format: functional; settings: read-out: TGI
HCT-116 [31] = assay: Growth inhibition of human HCT116 cells at 1 uM by CCK-8 assay; format: functional, cell-based; settings: TDE = time-dependent effect
RKO [32] = assay: Growth inhibition of human RKO cells at 1 uM by CCK-8 assay; format: functional, cell-based; settings: TDE = time-dependent effect

`COc1cccc(Nc2ccnc3cc(OCCCc4ccccc4)ccc23)c1` gave an Activity (HCT-116 [1]) of 16%, a viability at 8 µM (HCT-116 [2]) of 62.9% and an Activity (HCT-116 [3]) of 1.3%. The Activity (HCT-116 [4]) was 15.45%, the viability at 4 µM (HCT-116 [5]) was 75.1% and the Activity (HCT-116 [6]) was 2.19 - 5.82%. The Activity (HCT-116 [7]) was 15.38 - 17.66%, the Activity (HCT-116 [8]) was 17.9 - 18.35% and the viability at 8 µM (HCT-116 [9]) was 60.5 to 62.2%. For the same compound, the Activity (HCT-116 [10]) was “Active”, the IC50 (HCT-116 [11]) was 2.56 µM and the IC50 (HeLa) was 2.71 µM. For the same compound, the IC50 (BGC-823) was 9.08 µM, the “growth inhibition (GI)” value (RKO [12]) was “Dose-dependent effect” and the inhibition (HCT-116 [13]) was “Dose-dependent effect”. The IC50 (NCI-H1650) was 6.3 µM, the “growth inhibition (GI)” value (HCT-116 [14]) was “Dose-dependent effect” and the inhibition (RKO [15]) was “Dose-dependent effect”. For the same compound, the Activity (HCT-116 [16]) was “Active”, the Activity (HCT-116 [17]) was 11.97% and the Activity (HCT-116 [18]) was 11.64%. The Activity (HCT-116 [19]) was 1.71%, the Activity (HCT-116 [20]) was “Dose-dependent effect” and the Activity (HCT-116 [21]) was “Dose-dependent effect”. The Activity (HCT-116 [22]) was “Active”, the Activity (HCT-116 [23]) was “Active” and the Activity (HCT-116 [24]) was “Dose-dependent effect”. The Activity (HCT-116 [25]) was “inactive”, the Activity (HCT-116 [26]) was “Active” and the Activity (HCT-116 [27]) was 5.26%. It also gave an Activity (HCT-116 [28]) of 11.04%, an Activity (HCT-116 [29]) of 7.04% and an inhibition in vivo at 80 mg/kg [30] of 82.1%. The “growth inhibition (GI)” value (HCT-116 [31]) was “Tde” and the “growth inhibition (GI)” value (RKO [32]) was “Tde”.

Source: ChEMBL document CHEMBL4364251, “Design, synthesis and biological evaluation of new quinoline derivatives as potential antitumor agents” (Eur J Med Chem, 2019)
